This note sets out measurements from publication PMC5797045, “Characterization of CDK(5) inhibitor, 20-223 (aka CP668863) for colorectal cancer therapy” (Oncotarget, 2017).

In assay [1] the target is T1, CDK2 (Homo sapiens, UniProt P24941).
T1 construct: with Cyclin E
Nature of the assay: cell-free kinase assay, 10-point dose response. Type of assay: biochemical.

For assay [2], the target named is T2, CDK5 (Homo sapiens, UniProt Q00535).
T2 construct: with p35
Nature of the assay: cell-free kinase assay, 10-point dose response. It is filed as biochemical.

T2 sequence (Q00535 whole entry): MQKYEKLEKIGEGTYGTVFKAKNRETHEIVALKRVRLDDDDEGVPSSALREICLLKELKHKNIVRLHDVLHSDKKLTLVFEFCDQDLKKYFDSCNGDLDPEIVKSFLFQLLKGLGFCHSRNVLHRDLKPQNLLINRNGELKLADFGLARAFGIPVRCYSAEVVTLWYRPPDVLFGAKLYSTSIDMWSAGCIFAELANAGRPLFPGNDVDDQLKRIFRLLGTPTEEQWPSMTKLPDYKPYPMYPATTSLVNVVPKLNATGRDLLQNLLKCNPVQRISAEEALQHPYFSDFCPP
T2 sequence (Q15078 2-307 partner): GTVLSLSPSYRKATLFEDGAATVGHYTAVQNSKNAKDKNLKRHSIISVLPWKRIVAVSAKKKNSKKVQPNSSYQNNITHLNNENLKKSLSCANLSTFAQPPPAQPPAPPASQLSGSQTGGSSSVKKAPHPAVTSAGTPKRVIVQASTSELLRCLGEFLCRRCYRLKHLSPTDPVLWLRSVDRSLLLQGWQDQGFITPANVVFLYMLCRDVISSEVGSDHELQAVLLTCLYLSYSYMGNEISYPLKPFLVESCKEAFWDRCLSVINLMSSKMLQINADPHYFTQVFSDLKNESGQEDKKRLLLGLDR

One may read the IC50 as the concentration that inhibits the measured activity by half. Read a low IC50 as higher potency. With `O=C(Cc1ccc2ccccc2c1)Nc1cc(C2CCC2)[nH]n1` [20-223], the IC50 was 6 nM in assay [1] and 8.8 nM in assay [2].
